According to ChEMBL document CHEMBL1201862, “PubChem BioAssay data set” (2004):
Calls of active or inactive are those of the source.

Assays:
HEK293 = experiment: viability loss in HEK293T cells – cell-based, ATP luminescence, cherry-pick samples, cytotoxicity control, dose response (AID 687005); type: functional; details: Homo sapiens;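 also: cells exposed to compound for 48 hours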
[1] = HEK293 Cytotoxicity Assay Measured in Cell-Based System Using Plate Reader - 7071-01_Inhibitor_Dose_CherryPick_Activity_Set2.; type: functional
Vero = experiment: viability loss in Vero cells – cell-based, plate reader, cherry-pick samples, cytotoxicity control, dose response (AID 687020); type: functional; details: Chlorocebus sabaeus
[2] = IGROV1 cell killing – plate reader, dry powder samples, PAX8 inhibitor project, dose response (AID 743043); type: functional, cell-based; details: IGROV-1
[3] = OVCAR8 cell viability loss – plate reader, dry powder samples, PAX8 project, dose response (AID 743197); type: functional, cell-based; details: OVCAR-8
[4] = A2780 cell killing – plate reader, dry powder samples, cytotoxicity control, dose response (AID 743046); type: functional, cell-based
Paired box protein Pax-8 = Paired box protein Pax-8 (Homo sapiens, UniProt Q06710); experiment: PAX8 transcriptional activity inhibition in RMG-I – RMG-I cells, luciferase, cherry-pick, dose response (AID 687027); type: functional, cell-based;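 also: luciferase reporter driven by Pax8 target thyroperoxidase promoter measured by SteadyGlo luminescence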
Chain of Paired box protein Pax-8 (Q06710 whole entry): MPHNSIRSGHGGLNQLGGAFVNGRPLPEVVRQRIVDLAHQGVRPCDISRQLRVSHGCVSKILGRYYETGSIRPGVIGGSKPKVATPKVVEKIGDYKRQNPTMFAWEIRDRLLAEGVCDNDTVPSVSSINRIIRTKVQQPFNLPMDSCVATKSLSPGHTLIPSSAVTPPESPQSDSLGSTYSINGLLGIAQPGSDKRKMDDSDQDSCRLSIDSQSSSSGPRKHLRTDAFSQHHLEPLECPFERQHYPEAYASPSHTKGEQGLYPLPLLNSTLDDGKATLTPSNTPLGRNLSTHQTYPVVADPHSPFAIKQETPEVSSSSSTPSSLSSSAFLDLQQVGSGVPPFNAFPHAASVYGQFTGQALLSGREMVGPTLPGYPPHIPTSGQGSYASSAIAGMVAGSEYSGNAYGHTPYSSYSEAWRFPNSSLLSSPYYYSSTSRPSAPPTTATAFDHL

[5] = OVCAR-3 cell viability loss – plate reader, dry powder samples, PAX8 inhibitor project, dose response (AID 743044); type: functional, cell-based
[6] = cytotoxicity in HEK293 background cells – cell-based, dry powder, set 2, counter-screen for EBV LMP1 inhibitor project, dose response (AID 624374); type: functional
[7] = viability loss in HEK293 kidney cells – cell-based, cherry-picks, set 5, cytotoxicity control, dose response (AID 1053117); type: functional
[8] = A549 cell cytotoxicity, dose response, cytotoxicity control, plate reader, cherry-pick, antagonist series (AID 743412); type: functional, cell-based
[9] = blockade of melanocortin 4 receptor signaling – cell-based, plate reader, cherry pick, counter-screen for LGR2 antagonist project, dose response (AID 743444); type: functional;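 also: transfected HEK 293 cells stimulated with alpha-MSH peptide; potency of inhibitors of the alpha-MSH evoked signal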
[10] = inhibition of bursicon-driven LGR2 cAMP signaling – cell-based, HEK293, CRE-luciferase reporter, cherry pick, dose response (AID 743342); type: functional
[11] = target: Disintegrin and metalloproteinase domain-containing protein 17 (Homo sapiens, UniProt P78536); experiment: inhibition of ADAM17 substrate cleavage – biochemical, quenched FRET substrate, counter-screen for ADAM10 exosite inhibitor project, dose response (AID 743253)
Chain of Disintegrin and metalloproteinase domain-containing protein 17 (P78536 whole entry, the tested form may be a part): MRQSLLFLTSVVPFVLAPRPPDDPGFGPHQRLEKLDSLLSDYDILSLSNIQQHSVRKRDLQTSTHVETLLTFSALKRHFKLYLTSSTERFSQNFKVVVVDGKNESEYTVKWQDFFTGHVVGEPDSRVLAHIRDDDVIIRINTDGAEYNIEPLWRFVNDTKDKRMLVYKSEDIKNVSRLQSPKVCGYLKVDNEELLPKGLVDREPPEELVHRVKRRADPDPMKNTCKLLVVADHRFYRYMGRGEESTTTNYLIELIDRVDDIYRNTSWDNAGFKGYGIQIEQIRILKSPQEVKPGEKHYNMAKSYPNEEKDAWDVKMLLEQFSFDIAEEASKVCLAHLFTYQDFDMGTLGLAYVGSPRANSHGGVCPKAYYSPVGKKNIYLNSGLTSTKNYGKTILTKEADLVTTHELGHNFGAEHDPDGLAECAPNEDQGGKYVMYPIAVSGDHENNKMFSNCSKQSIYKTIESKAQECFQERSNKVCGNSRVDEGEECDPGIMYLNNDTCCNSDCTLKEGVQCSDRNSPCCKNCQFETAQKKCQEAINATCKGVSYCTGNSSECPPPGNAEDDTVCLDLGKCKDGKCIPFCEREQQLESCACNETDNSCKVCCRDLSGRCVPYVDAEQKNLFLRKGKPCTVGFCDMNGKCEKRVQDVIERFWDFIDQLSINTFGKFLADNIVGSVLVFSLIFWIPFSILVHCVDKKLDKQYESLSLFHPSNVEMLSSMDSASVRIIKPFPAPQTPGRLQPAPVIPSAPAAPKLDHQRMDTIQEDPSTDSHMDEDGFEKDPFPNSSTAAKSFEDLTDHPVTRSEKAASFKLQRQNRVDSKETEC

[12] = potency of ADAM10 substrate cleavage blockers – biochemical, QFRET, dose response (AID 743254);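 also: ADAM10 enzyme with the DM2 quenched FRET peptide as substrate; EDANS fluorescence gain as the protease cuts the substrate; inhibitor potency against ADAM10 proteolytic activity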
[13] = anti-trypanosomal activity in BESM host cells – imaging, CA-I/72 strain, bovine embryo skeletal muscle, dry powder, dose response (AID 651885); type: functional, cell-based
[14] = target: T1, Oxysterols receptor LXR-beta (Homo sapiens, UniProt P55055); type: functional, cell-based;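 also: agonist activity at LXR measured by a cell-based luminescence readout across a dose range, run as a counterscreen for daf-12 agonists; HEK293 cells with Gal4-LXR fusion and GAL4-driven luciferase reporter; potency for activation of Gal4-LXR reporter so compounds are agonists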
T1 sequence (P55055 whole entry): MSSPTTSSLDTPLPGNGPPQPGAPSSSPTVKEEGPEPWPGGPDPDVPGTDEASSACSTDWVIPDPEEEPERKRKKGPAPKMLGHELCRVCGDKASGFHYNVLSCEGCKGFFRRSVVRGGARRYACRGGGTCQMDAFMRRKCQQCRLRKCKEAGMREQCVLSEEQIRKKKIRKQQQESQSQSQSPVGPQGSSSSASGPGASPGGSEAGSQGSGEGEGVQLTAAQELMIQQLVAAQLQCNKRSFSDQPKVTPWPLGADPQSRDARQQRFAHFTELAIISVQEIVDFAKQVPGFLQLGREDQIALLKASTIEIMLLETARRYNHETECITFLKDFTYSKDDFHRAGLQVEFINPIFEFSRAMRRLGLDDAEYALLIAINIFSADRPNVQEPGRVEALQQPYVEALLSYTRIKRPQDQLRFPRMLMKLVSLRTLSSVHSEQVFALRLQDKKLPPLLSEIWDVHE

[15] = inhibition of ARNT PAS-B/TACC3 complex formation – biochemical, AlphaScreen, cherry-picked samples, confirmation (AID 651703); type: functional, Homo sapiens;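 also: His-tagged ARNT PAS-B domain paired with GST-TACC3 E629A dimer coactivator fragment; potency of inhibitors that break up the complex and lower AlphaScreen signal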
[16] = bead-based luminescence quenchers, dual-tagged ARNT – biochemical, AlphaScreen, cherry-pick, artefact control for ARNT-TACC3 interaction inhibitor project, dose response (AID 651705); type: functional;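 also: AlphaScreen bead proximity signal that flags compounds interfering with the detection technology; potency reflects signal decrease which marks the compound as an assay artifact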
[17] = alpha-synuclein stem-loop luciferase translation blockers – H4 neuroglioma cells, luminescence, confirmation (AID 1988); type: functional, cell-based
[18] = Luminescence Cell-Based Dose Response HTS to Identify Inhibitors of 5'UTR Stem-Loop Driven Prion Protein mRNA Translation in H4 Neuroglioblastoma Cells. [Related pubchem assays: 1827 (Project Summary), 1813 (Primary HTS)]; type: functional
[19] = luciferase reporter signal suppression in cells – H4 neuroglioma cells, luminescence, dose response (AID 1990); type: functional, cell-based
[20] = general mammalian cell viability loss – activator set, cherry-pick, cytotoxicity control for miR-122 modulator project, dose response (AID 720690); type: functional, cell-based;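 also: HEK293T human cells scored for general mammalian cytotoxicity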
[21] = activation of miR-122 Renilla sensor silencing – cell-based, Huh7 psiCHECK-miR122, Renilla luciferase, cherry-picked, dose response (AID 651956); type: functional;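 also: huh7 hepatoma cells stably carrying a psiCHECK-2 miR-122 sensor plasmid; renilla luciferase signal reporting endogenous miR-122 activity after 48 h compound exposure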

O=C(N[C@@H]1CC[C@@H](CCn2cc(-c3ccccc3)nn2)O[C@H]1CO)c1cnccn1
AC50 (HEK293): 21.8 µM (active) | AC50 [1]: 21.8 µM (active)

COc1ccccc1-c1noc2c1C(=O)N(Cc1cn(Cc3ccccc3)nn1)CC2
AC50 (Vero): 32.2 µM (active)

COc1ccc(S(=O)(=O)N(C)C[C@H]2Oc3cc(C#CC4CCCC4)ccc3S(=O)(=O)N([C@@H](C)CO)C[C@@H]2C)cc1
AC50 [2]: 57.4 µM (active) | AC50 [3]: 31.3 µM (active) | AC50 [4]: 8.96 µM (active) | AC50 (Paired box protein Pax-8): 6.49 µM (active) | AC50 [5]: 21.4 µM (active)

O=C(Cc1ccccn1)NCC[C@@H]1CC[C@@H](NC(=O)Nc2ccc(Cl)cc2)[C@@H](CO)O1
AbsAC35 [6]: 83.87 µM

COc1cccc(-c2ccc3c(c2)[C@H]2[C@H](CCN2S(=O)(=O)c2cccc(OC)c2)[C@H](CO)N3)c1
AC50 [7]: 26.9 µM (active)

C[C@H](CO)N1C[C@H](C)[C@H](CN(C)C(=O)Nc2cccc3ccccc23)OCCCC[C@H](C)Oc2ccc(NC(=O)c3ccccc3)cc2C1=O
AC50 [8]: 48 µM (active) | AC50 [9]: 52.5 µM (active) | AC50 [10]: 4.88 µM (active)

Nc1[nH]c(C(=O)c2ccccc2)c(-c2cccc(C(F)(F)F)c2)c1C(=O)NCCc1c[nH]c2ccccc12
IC50 [11]: > 69.6 µM (inactive) | IC50 [12]: > 7.73 µM (active)

C[C@H]1CN([C@@H](C)CO)C(=O)c2cccc(NC(=O)c3ccncc3)c2O[C@@H]1CN(C)Cc1ccc(C(=O)O)cc1
IC50 [13]: > 20 µM (inactive)

Cc1ccc(/C=N/NC(=O)c2ccccn2)s1
EC50 [14]: > 67.6 µM (inactive)

O=c1oc2ccccc2c(O)c1/C=N/Cc1ccccn1
AC50 [15]: 109 µM (active)

C(=N\Nc1ccc2nncn2n1)/c1ccccn1
AC50 [16]: 110 µM (active) | EC50 [17]: > 120 µM (not active) | EC50 [18]: 11.8 µM (active) | EC50 [19]: > 120 µM (not active)

CC(=O)/N=c1\scc(-c2ccccc2)n1-c1cccc(O)c1
AC50 [20]: 44.8 µM (active) | AC50 [21]: 25.1 µM (active)
